Results taken from patent US9884819B2, “Tetrahydrocarbazole inhibitors of SIRT1 receptors” (Auspex Pharmaceuticals, Inc., priority 2016, dated 2018).

Legend:
CYP1A2 = target: T1, CYP1A2 (Homo sapiens, UniProt P05177); test: In vitro metabolism using human cytochrome P450 enzymes (CYP1A2); format: in vitro ADME; settings: for Clint / half-life at 0.2 mM: Cyp 1A2; for Percent Remaining (%) 0 min: Cyp 1A2, 0 min; for Percent Remaining (%) 0 min / Percent Remaining (%) 15 min / Percent Remaining (%) 30 min / Percent Remaining (%) 45 min / Percent Remaining (%) 60 min: mean; for Percent Remaining (%) 15 min: Cyp 1A2, 15 min; for Percent Remaining (%) 30 min: Cyp 1A2, 30 min; for Percent Remaining (%) 45 min: Cyp 1A2, 45 min; for Percent Remaining (%) 60 min: Cyp 1A2, 60 min; for half-life at 0.2 mM: human, recombinant CYP1A2 (baculovirus expression system), pH 7.4
T1 construct: purchased BD Biosciences, San Jose, Calif
T1 sequence (P05177 1-516): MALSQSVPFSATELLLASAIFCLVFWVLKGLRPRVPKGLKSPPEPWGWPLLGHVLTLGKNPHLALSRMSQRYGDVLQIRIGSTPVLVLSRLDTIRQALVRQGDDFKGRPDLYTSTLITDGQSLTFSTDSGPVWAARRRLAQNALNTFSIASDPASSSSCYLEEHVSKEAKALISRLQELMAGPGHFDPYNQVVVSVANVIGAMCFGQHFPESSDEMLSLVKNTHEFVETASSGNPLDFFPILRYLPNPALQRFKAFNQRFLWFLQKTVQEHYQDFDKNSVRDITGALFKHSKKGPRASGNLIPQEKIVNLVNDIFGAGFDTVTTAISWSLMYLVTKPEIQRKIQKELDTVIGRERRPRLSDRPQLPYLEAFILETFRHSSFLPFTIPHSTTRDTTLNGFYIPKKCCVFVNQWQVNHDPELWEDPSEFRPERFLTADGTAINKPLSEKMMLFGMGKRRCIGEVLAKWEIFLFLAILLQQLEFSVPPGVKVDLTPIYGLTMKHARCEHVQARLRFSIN

drosophila model of HD = settings: cited from earlier work
[1] = In vitro human liver microsomal stability assay; format: in vitro ADME; settings: for Percent Remaining (%) 0 min / Percent Remaining (%) 15 min / Percent Remaining (%) 30 min / Percent Remaining (%) 60 min / Percent Remaining (%) 120 min: human liver microsomes 2 mg/mL, 1 μM compound; for Percent Remaining (%) 0 min / Percent Remaining (%) 15 min / Percent Remaining (%) 30 min / Percent Remaining (%) 60 min / Percent Remaining (%) 120 min / Percent Remaining (%) 120 min w/o NADPH: mean; for Percent Remaining (%) 120 min w/o NADPH: 120 min without NADPH; for CLint scaled at 1 μM / half-life at 1 μM: pH 7.4
Description: Human liver microsomal stability assays are conducted at 2 mg per mL liver microsome protein with an NADPH-generating system consisting of NADP (1 mM, pH 7.4), […] (5 mM, pH 7.4), and glucose-6-phosphate dehydrogenase (1 unit/mL). Test compounds were prepared as solutions in DMSO and added to the assay mixture (1 μM, final concentration in incubation) and were incubated at 37±1° C. […] Samples were centrifuged (920×g for 10 min at 10° C.) in 96-well plates. Supernatant fractions were analyzed by LC-MS/MS to determine the percent remaining and estimate the degradation half-life of the test compounds.

CYP3A4 = CYP3A4 (Homo sapiens, UniProt P08684); test: In vitro metabolism using human cytochrome P450 enzymes (CYP3A4); settings: for Clint: Cyp 3A4; for Percent Remaining (%) 0 min: Cyp 3A4, 0 min; for Percent Remaining (%) 0 min / Percent Remaining (%) 15 min / Percent Remaining (%) 30 min / Percent Remaining (%) 45 min / Percent Remaining (%) 60 min: mean; for Percent Remaining (%) 15 min: Cyp 3A4, 15 min; for Percent Remaining (%) 30 min: Cyp 3A4, 30 min; for Percent Remaining (%) 45 min: Cyp 3A4, 45 min; for Percent Remaining (%) 60 min: Cyp 3A4, 60 min; for half-life at 0.2 mM: human, pH 7.4
R6/2 mouse = settings: transgenic r6/2 mouse model; cited from earlier work
[2] = cited from earlier work
[3] = human liver microsomes, degradation half-life
[4] = recombinant CYP3A4 (baculovirus expression system)
[5] = human, single-dose phase, average
[6] = human, single-dose phase, range

Chain of CYP3A4 (P08684 whole entry): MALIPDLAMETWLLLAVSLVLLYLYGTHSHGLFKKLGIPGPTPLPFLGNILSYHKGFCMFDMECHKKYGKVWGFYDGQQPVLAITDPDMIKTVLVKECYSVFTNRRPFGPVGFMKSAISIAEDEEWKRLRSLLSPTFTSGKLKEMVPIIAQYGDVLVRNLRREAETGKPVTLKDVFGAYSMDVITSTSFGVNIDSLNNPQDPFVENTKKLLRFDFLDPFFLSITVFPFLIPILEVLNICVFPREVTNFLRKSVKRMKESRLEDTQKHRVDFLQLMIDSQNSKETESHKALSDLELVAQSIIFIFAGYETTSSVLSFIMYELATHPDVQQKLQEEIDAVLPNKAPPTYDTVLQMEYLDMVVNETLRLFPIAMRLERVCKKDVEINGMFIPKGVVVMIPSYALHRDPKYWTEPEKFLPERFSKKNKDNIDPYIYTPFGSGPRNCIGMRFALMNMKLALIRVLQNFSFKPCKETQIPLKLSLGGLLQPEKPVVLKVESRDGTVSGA

Row | Compound | Clint (CYP1A2) [mL/min/pmol] | Percent Remaining (%) 0 min (CYP1A2) [%] | Percent Remaining (%) 15 min (CYP1A2) [%] | Percent Remaining (%) 30 min (CYP1A2) [%] | Percent Remaining (%) 45 min (CYP1A2) [%] | Percent Remaining (%) 60 min (CYP1A2) [%] | half-life at 0.2 mM (CYP1A2) [min] | Percent Remaining (%) 0 min [1] [%] | Percent Remaining (%) 15 min [1] [%] | Percent Remaining (%) 30 min [1] [%] | Percent Remaining (%) 60 min [1] [%] | Percent Remaining (%) 120 min [1] [%] | Percent Remaining (%) 120 min w/o NADPH ([1]; human liver microsomes) [%] | CLint scaled at 1 μM ([1]; human liver microsomes) [mL/min/kg] | Clint (CYP3A4) [mL/min/pmol] | Percent Remaining (%) 0 min (CYP3A4) [%] | Percent Remaining (%) 15 min (CYP3A4) | Percent Remaining (%) 30 min (CYP3A4) | Percent Remaining (%) 45 min (CYP3A4) | Percent Remaining (%) 60 min (CYP3A4) | other results
1 | NC(=O)C1CCCc2c1[nH]c1ccc(Cl)cc21 (stereo not shown) [Example 1, 6-chloro-2,3,4,9-tetrahydro-1H-carbazole-1-carboxamide] | 0.0002 | 100.00 | 46.28 | 24.21 | 16.02 | 11.55 | 16.9 | 100 | 93.37 | 90.46 | 73.66 | 52.94 | 102.02 | 13.6 | 0.00013 | 100.00 | 63.43% | 55.02% | 54.21% | 51.13% | Neuroprotection (drosophila model of HD): neuroprotective; half-life at 1 μM [1, 3]: 128 min; half-life at 0.2 mM (CYP3A4; [4]): 52.5 min; Effects on life span and psychomotor and histological endpoints (R6/2 mouse): statistically significant effects on life span; Intersubject variability (% CV) in AUC(0,∞), average [2, 5]: 56%; Intersubject variability (% CV) in Cmax, average [2, 5]: 33%; Intersubject variability (% CV) in AUC(0,∞) [2, 6]: 35-71%; Intersubject variability (% CV) in Cmax [2, 6]: 23-46%; Safety and tolerability in human subjects ([2]; recent clinical trial (Westerberg et al.)): safe and well-tolerated
2 | [2H]C1(C(N)=O)CCCc2c1[nH]c1ccc(Cl)cc21 (stereo not shown) [Example 2, 6-chloro-1-deutero-2,3,4,9-tetrahydro-1H-carbazole-1-carboxamide] | 0.0002 | 100.00 | 48.53 | 27.30 | 17.05 | 12.99 | 17.7 | 100 | 100.12 | 85.44 | 71.84 | 59.95 | 100.36 | 11.4 | 0.00013 | 100.00 | 69.07% | 59.14% | 54.63% | 53.05% | half-life at 1 μM [1, 3]: 152 min; half-life at 0.2 mM (CYP3A4; [4]): 52.8 min
3 | [2H]C1([2H])c2c([nH]c3ccc(Cl)cc23)C(C(N)=O)C([2H])([2H])C1([2H])[2H] (stereo not shown) [Example 3, 6-chloro-2,3,4,9-tetrahydro-1H-carbazole-2,2,3,3,4,4-d6-1-carboxamide] | 0.00019 | 100.00 | 45.84 | 26.01 | 17.34 | 12.82 | 17.9 | 100 | 92.39 | 86.96 | 70.69 | 52.83 | 96.74 | 13.5 | 0.00010 | 100.00 | 69.80% | 61.49% | 63.89% | 60.39% | half-life at 1 μM [1, 3]: 128 min; half-life at 0.2 mM (CYP3A4; [4]): 70.7 min
4 | O=C(c1ccc(F)cc1)C1CCN(CCn2c(=O)[nH]c3ccccc3c2=O)CC1 [Ketanserin] |  |  |  |  |  |  |  | 100 | 78.08 | 64.73 | 44.75 | 26.52 | 97.70 |  |  |  |  |  |  |  | Clint ([1]; human liver microsomes): 39.88 mL/min/kg; T1/2 [1, 3]: 43.58 min
5 | Cc1ncc2n1-c1ccc(Cl)cc1C(c1ccccc1F)=NC2 [Midazolam] |  |  |  |  |  |  |  |  |  |  |  |  |  |  | >0.0014 | 100.00 | BQL | BQL | BQL | BQL | half-life at 0.2 mM (CYP3A4; recombinant enzyme): < 5 min
6 | CCOc1ccc(NC(C)=O)cc1 [Phenacetin] | 0.00018 | 100.00 | 53.02 | 31.01 | 20.20 | 15.08 |  |  |  |  |  |  |  |  |  |  |  |  |  |  | 
